Results on twelve compounds are retold here after ChEMBL document CHEMBL1201862, “PubChem BioAssay data set” (2004).

One test addresses Trypsin (Sus scrofa, UniProt P00761). Nature of the test: porcine trypsin inhibitors, dose response, selectivity assay for Rce1 protease inhibitor project, biochemical, quenched peptide fluorescence, cherry-pick (AID 488789).
For test [1], the target named is Voltage-dependent T-type calcium channel subunit alpha-1H (Homo sapiens, UniProt O95180). It counts as functional.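 Further: channel activity triggered by adding a high calcium stimulation buffer.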
Chain of Voltage-dependent T-type calcium channel subunit alpha-1H (O95180 whole entry): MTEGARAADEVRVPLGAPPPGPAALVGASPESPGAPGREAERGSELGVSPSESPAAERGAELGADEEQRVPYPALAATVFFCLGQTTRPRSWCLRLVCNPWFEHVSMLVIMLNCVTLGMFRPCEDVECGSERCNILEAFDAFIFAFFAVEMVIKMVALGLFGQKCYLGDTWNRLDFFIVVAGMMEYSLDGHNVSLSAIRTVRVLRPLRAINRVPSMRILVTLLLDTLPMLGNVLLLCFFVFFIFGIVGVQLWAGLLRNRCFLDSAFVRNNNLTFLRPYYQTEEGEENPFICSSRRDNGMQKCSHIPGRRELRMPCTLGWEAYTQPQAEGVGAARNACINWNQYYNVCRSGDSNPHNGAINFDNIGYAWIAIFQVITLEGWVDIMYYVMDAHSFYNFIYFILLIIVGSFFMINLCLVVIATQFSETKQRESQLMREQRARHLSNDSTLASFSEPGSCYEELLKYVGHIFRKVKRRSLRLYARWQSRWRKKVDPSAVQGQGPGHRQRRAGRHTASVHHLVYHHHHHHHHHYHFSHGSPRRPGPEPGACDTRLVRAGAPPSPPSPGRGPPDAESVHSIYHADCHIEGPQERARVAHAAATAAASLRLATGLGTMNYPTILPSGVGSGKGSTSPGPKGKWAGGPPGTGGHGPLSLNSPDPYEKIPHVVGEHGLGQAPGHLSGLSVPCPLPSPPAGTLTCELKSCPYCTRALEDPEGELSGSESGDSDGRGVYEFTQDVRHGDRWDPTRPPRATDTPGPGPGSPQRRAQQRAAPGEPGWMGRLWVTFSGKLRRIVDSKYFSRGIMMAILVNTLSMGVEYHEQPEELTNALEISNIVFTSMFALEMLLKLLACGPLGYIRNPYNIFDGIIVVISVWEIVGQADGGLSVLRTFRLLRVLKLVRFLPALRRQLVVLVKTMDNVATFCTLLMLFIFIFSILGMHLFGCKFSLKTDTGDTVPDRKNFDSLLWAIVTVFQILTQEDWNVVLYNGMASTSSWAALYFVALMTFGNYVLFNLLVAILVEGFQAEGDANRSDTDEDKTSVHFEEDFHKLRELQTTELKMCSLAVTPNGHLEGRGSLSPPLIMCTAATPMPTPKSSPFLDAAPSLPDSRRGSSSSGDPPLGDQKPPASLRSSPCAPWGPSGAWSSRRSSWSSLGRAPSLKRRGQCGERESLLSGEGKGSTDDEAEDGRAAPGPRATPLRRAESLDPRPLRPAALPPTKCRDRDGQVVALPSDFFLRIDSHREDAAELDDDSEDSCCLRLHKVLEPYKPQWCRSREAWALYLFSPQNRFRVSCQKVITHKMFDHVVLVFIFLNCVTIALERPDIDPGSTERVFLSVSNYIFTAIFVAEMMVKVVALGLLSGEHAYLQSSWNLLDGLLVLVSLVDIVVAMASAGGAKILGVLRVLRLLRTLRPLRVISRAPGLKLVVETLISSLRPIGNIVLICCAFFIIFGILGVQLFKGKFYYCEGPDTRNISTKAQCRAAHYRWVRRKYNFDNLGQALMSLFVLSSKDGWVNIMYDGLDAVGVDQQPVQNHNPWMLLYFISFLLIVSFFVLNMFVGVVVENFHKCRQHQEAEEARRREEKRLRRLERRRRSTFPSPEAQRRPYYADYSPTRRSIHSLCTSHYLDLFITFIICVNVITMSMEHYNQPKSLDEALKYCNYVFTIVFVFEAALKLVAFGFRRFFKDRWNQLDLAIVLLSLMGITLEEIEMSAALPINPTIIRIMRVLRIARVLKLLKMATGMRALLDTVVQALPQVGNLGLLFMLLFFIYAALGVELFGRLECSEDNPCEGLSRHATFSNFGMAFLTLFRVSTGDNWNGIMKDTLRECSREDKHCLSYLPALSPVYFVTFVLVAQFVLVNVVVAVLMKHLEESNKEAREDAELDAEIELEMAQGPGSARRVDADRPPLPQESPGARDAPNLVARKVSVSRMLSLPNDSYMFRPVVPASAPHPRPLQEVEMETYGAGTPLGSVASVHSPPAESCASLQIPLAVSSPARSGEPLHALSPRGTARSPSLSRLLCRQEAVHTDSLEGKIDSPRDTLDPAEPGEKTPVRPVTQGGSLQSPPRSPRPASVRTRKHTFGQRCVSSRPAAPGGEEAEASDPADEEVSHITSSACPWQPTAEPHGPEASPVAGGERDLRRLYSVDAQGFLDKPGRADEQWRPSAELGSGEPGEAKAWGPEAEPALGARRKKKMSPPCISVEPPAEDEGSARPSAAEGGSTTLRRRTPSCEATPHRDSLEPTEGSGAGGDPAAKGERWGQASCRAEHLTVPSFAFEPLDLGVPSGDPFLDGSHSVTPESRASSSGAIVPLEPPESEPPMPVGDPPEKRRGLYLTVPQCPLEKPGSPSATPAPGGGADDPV
Test [2] is described as follows: A cytotoxicity screen of small molecule inhibitors of the PhoP region in Salmonella typhi identified in the primary screen. [Related pubchem assays: 1850, 1864, 1985 ]. Type of test: functional.
The target in the next test is T1, Leucine aminopeptidase (Plasmodium falciparum 3D7, UniProt Q8IL11).
T1 sequence (Q8IL11 whole entry): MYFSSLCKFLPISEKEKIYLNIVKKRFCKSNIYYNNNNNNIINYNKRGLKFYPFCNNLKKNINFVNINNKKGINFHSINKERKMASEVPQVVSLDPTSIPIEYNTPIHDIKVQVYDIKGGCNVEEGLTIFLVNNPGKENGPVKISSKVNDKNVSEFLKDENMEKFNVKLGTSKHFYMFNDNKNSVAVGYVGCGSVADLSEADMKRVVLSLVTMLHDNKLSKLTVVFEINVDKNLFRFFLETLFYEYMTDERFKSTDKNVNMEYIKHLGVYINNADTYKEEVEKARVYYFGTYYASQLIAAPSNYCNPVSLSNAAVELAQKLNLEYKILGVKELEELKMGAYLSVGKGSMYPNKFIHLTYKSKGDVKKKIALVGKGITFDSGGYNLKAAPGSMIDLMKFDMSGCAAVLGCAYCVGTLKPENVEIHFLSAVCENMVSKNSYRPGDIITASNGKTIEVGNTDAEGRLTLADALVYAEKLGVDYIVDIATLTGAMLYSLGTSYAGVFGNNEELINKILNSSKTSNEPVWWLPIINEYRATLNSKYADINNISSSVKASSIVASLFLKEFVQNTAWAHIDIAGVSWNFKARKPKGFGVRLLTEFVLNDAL
Nature of the test: P. falciparum M17LAP inhibitors, primary screen, biochemical, fluorogenic H-Leu-NHMec substrate, 1536-well (AID 1619). Type of test: functional.

Test [3] addresses DNA dC->dU-editing enzyme APOBEC-3G (Homo sapiens, UniProt Q9HC16). Nature of the test: Dose Response confirmation of small molecule APOBEC3G DNA Deaminase Inhibitors via a fluorescence-based single-stranded DNA deaminase assay. [Related pubchem assays (depositor defined):AID493012, AID493028]. It counts as functional.
The target of another test is T2, Protein RecA (Mycobacterium tuberculosis, UniProt P9WHJ3).
T2 sequence (P9WHJ3 whole entry): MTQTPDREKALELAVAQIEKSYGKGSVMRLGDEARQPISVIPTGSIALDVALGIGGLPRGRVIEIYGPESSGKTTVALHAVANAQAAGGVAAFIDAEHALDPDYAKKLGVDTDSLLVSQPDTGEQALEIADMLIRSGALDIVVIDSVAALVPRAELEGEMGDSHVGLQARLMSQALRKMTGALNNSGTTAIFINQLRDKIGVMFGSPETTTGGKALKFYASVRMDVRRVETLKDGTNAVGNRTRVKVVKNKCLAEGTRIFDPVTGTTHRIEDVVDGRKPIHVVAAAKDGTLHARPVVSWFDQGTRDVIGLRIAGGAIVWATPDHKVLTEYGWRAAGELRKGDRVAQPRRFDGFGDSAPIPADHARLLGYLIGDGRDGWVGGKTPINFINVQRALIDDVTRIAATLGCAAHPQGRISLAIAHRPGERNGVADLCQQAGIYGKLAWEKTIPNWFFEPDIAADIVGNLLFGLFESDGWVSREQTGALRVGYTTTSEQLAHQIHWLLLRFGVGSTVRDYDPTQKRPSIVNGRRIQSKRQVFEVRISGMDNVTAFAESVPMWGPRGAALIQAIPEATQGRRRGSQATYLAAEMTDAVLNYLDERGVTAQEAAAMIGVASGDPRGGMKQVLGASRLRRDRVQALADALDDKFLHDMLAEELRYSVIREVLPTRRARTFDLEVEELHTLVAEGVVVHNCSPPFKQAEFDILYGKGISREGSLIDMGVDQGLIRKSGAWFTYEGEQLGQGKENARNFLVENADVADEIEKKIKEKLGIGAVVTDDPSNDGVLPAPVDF
Nature of the test: Fluorescence Cell-Free Homogeneous Dose Retest to Identify Inhibitors of RecA-Intein Splicing Activity. [Related pubchem assays (depositor defined):AID2097, AID2223, AID489010, AID492950]. It counts as functional.

Test [4] addresses T3, Replicative DNA helicase DnaB (Mycobacterium tuberculosis, UniProt P9WMR3).
T3 sequence (P9WMR3 whole entry): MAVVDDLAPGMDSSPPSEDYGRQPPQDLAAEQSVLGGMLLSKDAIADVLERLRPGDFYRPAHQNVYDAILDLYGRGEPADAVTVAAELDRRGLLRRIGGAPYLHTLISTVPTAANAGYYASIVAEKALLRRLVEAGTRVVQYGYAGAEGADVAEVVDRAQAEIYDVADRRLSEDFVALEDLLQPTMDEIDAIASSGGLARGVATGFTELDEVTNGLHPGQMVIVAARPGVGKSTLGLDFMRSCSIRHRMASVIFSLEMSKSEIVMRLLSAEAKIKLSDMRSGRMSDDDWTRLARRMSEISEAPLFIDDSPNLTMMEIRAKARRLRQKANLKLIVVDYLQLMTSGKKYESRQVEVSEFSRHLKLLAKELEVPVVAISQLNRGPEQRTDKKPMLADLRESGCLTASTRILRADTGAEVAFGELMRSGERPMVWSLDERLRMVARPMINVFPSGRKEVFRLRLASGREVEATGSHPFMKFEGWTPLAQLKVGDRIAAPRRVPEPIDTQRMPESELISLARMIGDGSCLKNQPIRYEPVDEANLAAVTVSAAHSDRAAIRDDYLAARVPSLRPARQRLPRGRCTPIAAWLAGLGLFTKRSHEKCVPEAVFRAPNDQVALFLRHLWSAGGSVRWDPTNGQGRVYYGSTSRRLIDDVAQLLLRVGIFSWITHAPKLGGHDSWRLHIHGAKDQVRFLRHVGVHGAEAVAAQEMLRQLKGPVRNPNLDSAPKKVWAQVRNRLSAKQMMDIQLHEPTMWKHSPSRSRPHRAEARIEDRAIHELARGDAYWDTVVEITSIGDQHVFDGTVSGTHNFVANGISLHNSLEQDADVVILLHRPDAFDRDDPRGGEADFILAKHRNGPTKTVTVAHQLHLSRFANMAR
Nature of the test: DnaB intein splicing inhibitors, dose response, biochemical, cell-free fluorescence (AID 449749). Type of test: functional.

The next test deals with T4, Aminopeptidase N (Plasmodium falciparum FcB1/Columbia, UniProt O96935).
T4 sequence (O96935 whole entry): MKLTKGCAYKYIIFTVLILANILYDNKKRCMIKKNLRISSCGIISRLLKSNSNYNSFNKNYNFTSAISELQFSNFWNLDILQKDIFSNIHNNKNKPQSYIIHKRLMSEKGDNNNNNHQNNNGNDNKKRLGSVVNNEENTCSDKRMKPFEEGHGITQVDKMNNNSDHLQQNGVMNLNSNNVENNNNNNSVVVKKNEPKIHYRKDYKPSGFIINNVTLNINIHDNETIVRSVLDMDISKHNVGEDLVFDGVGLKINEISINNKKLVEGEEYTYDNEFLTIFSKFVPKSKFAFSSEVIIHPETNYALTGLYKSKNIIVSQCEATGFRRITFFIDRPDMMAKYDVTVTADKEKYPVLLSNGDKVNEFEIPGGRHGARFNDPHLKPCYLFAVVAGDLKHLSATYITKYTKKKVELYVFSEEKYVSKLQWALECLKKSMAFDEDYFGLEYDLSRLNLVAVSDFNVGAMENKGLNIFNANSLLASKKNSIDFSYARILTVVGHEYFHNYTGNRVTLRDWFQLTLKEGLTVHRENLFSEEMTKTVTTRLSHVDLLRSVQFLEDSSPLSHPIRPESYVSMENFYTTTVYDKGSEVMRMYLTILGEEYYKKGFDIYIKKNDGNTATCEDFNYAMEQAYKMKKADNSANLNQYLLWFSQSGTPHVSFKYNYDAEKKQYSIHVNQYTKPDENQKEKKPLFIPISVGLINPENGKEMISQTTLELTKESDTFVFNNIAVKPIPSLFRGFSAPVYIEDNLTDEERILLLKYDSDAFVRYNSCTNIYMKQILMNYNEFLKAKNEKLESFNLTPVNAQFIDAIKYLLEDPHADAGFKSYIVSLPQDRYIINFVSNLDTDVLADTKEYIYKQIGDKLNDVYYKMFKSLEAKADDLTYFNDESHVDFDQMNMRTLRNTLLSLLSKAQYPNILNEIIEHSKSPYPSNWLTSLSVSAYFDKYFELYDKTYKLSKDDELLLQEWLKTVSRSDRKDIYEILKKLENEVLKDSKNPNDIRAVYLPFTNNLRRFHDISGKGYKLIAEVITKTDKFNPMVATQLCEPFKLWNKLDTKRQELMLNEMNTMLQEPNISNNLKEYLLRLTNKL
Nature of the test: P. falciparum M1AAP inhibitors, biochemical, fluorogenic H-Leu-NHMec substrate, 1536-well (AID 1445). The arrangement: species or system Plasmodium falciparum 3D7, 3D7.

Test [5] addresses T5, Rac GTPase-activating protein 1 (Homo sapiens, UniProt Q9H0H5).
T5 sequence (Q9H0H5 whole entry): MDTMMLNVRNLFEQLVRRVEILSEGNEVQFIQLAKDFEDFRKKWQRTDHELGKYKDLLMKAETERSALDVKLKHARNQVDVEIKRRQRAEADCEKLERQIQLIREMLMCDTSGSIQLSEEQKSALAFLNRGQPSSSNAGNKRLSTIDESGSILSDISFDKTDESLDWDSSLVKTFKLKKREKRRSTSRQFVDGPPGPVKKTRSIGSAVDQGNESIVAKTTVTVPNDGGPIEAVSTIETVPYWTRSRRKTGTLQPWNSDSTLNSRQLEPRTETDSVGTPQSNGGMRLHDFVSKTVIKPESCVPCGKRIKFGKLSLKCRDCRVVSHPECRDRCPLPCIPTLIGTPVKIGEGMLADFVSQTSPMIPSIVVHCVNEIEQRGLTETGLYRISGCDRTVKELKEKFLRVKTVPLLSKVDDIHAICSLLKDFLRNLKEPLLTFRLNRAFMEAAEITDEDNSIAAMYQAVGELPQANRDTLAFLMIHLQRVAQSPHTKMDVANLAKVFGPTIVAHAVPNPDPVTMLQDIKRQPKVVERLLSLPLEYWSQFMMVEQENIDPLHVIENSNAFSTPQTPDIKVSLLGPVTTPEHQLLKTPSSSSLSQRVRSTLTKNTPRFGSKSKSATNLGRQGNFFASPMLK
Nature of the test: MgcRacGAP GTPase-activating activity inhibitors, confirmation, biochemical, ADP Hunter fluorescence, primary and confirmatory (AID 624330). Type of test: functional.

Test [6] in a line: inhibitors of intracellular T. cruzi replication, confirmation, NIH3T3 host cells, beta-gal luminescence (AID 2044).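 Further: intracellular parasites grown in NIH/3T3 mouse fibroblasts as host cells; luminescent beta-galactosidase reporter signal from transgenic T. cruzi replicating inside host cells; inhibitors lower the luminescence signal.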 Type of test: functional, cell-based.
The nature of test [7]: HeLa cell cytotoxicity, dose response, cytotoxicity control for MgcRacGAP inhibitor project (AID 624300). Type of test: functional.
Another test deals with T6, CAAX prenyl protease 2 (Saccharomyces cerevisiae S288c, UniProt Q03530).
T6 sequence (Q03530 whole entry): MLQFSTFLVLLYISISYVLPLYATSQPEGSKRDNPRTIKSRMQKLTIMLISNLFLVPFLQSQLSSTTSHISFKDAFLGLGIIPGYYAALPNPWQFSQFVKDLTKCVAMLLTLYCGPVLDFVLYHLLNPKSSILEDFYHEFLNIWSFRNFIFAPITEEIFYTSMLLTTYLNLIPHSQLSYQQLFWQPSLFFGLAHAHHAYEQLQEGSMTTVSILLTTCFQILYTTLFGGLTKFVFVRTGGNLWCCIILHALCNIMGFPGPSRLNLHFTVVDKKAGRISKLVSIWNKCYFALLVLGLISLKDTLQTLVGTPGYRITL
It counts as biochemical.

Test [8] can be described thus: cytotoxicity toward NIH3T3 fibroblasts, dose response, counter-screen, cell-based, ATP luminescence, mouse fibroblasts (AID 2010).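 Further: cells exposed to compound for about 90 hours before reading.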 Type of test: functional.

The structures appear in SMILES notation. Activity calls are given as the source filed them.

Chain of Trypsin (P00761 whole entry): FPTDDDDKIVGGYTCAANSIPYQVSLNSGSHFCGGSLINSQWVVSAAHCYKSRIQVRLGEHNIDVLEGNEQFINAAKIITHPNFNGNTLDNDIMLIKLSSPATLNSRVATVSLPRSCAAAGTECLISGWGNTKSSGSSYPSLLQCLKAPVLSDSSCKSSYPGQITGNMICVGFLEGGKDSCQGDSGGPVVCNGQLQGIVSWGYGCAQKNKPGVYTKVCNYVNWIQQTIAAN
Chain of DNA dC->dU-editing enzyme APOBEC-3G (Q9HC16 whole entry): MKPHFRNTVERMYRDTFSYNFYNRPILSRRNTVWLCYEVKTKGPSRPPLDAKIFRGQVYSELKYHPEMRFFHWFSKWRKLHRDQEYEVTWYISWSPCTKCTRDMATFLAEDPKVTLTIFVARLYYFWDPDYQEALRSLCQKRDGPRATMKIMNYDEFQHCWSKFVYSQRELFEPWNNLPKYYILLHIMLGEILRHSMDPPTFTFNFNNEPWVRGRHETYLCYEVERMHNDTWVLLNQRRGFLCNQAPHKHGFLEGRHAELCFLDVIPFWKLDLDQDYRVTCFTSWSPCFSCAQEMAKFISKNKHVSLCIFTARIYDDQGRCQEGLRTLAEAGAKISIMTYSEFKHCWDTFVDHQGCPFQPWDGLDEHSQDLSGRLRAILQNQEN

A word on the AC50: it is the midpoint of the concentration-response curve, whichever way the signal moves. Consider `COCCCn1c(N)c(C(=O)NCc2ccco2)c2nc3ccccc3nc21`, for which the half-maximal activity concentration (AC50) at Trypsin was 10.3 µM (active).

Broadly, the EC50 is the concentration giving half of the maximal effect. As for `CCC1Oc2ccc(C)cc2N(CC(=O)NCC2COc3ccccc3O2)C1=O` (stereo not given), the EC50 in [1] is 5.63 µM (active); in test [2], > 50 µM (active). Take `O=c1oc2ccccc2nc1/C=C(\O)c1ccccc1`: the EC50 in [2] was > 50 µM (active).

For orientation: IC50 means the concentration at which inhibition is half-maximal. `CCOC(=O)c1c(NC(=O)C2C3C=CC(C3)C2C(=O)O)sc2c1CCC(C)C2` (stereo not given): the IC50 on Leucine aminopeptidase was 15.7 µM (active).

Consider `O=C(O)c1ccc(-n2c(-c3ccc(Br)cc3)n[nH]c2=S)cc1`, for which, in test [3], the IC50 was 9.1 µM (active). Turning to `Cc1ccccc1C(=O)Nc1nncs1`, at Leucine aminopeptidase, the half-inhibitory concentration (IC50) is 25.4 µM (active). As for `Cc1ccc(SCc2n[nH]c3c2C2(CCSCC2)C(C#N)=C(N)O3)cc1`, the EC50 at Protein RecA is 2.42 µM (active). In addition, the IC50 on Leucine aminopeptidase was 91 µM (active). Besides, in [4], the AC50 is 2.94 µM (active).

On to `CCCN(CCC)CC(=O)Nc1cccc2c1OCO2`, for which the EC50 in [2] is > 50 µM (active). Consider `COc1ccc(S(=O)(=O)NC2=NC(=O)/C(=C\c3cc(OC)c(OC)cc3[N+](=O)[O-])S2)cc1`, for which the IC50 on Aminopeptidase N is 22.4 µM (active). Usually CC50 stands for the concentration giving 50% cytotoxicity. For the compound `COc1ccc(C2CC(c3ccc4ccccc4c3)=NN2C(=O)CNC2CCCCC2)cc1` (stereo not given), the half-maximal inhibitory concentration (IC50) in [5] was 110 µM (active). In addition, the figures for the EC50 in test [6] and in [8] were 2.76 µM (active) and > 30 µM (not active), respectively. In addition, in [7], the cytotoxic concentration (CC50) is 39 µM (active). Besides, the half-maximal activity concentration (AC50) is 9.16 µM (active) on CAAX prenyl protease 2 and > 100 µM (inactive) at Trypsin. On to `O=C(Nc1cc(S(=O)(=O)N2CCOCC2)ccc1N1CCCCC1)c1ccc(Cl)cc1`, for which the half-inhibitory concentration (IC50) in test [3] is 50.5 µM (active). As for `O=C(CC1Sc2ccccc2NC1=O)Nc1cccc(C(=O)O)c1` (stereo not given), the IC50 at Leucine aminopeptidase was 2.94 µM (active).
